Holding throughout (assay): relative viability (nuclei count vs DMSO), 5 days (fraction); higher = more cells survive
Compound in the test “AZ628 + Lapatinib”: CC1=C(C=C(C=C1)NC(=O)C2=CC(=CC=C2)C(C)(C)C#N)NC3=CC4=C(C=C3)N=CN(C4=O)C [AZ628] + CS(=O)(=O)CCNCc1ccc(-c2ccc3ncnc(Nc4ccc(OCc5cccc(F)c5)c(Cl)c4)c3c2)o1 [Lapatinib] (partner 2 µM)
The gist of the method: (§1)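 Relative viability equals treated-well nuclei counts divided by vehicle-well nuclei counts. Counts came from 4× images of lung cancer cell lines grown in 1536-well plates for 5 days after pin-tool dosing on the day after seeding. Dosing used one drug alone or a fixed anchor-drug dose plus five library-drug doses (not always all listed) in √10 steps, and values are medians of duplicate plates.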

Compound in the test “AZ628 + Foretinib”: CC1=C(C=C(C=C1)NC(=O)C2=CC(=CC=C2)C(C)(C)C#N)NC3=CC4=C(C=C3)N=CN(C4=O)C [AZ628] + COc1cc2c(Oc3ccc(NC(=O)C4(C(=O)Nc5ccc(F)cc5)CC4)cc3F)ccnc2cc1OCCCN1CCOCC1 [Foretinib] (partner 0.25 µM)
The essentials:
as §1

Compound in the test “AZ628 + Bortezomib”: CC1=C(C=C(C=C1)NC(=O)C2=CC(=CC=C2)C(C)(C)C#N)NC3=CC4=C(C=C3)N=CN(C4=O)C [AZ628] + CC(C)C[C@H](NC(=O)[C@H](Cc1ccccc1)NC(=O)c1cnccn1)B(O)O [Bortezomib] (partner 0.002 µM)
The essentials:
as §1

Compound in the test “QS11 + Palbociclib”: C1CC2=C(C1)C=C(C=C2)OC3=NC(=C4C(=N3)N(C=N4)CC5=CC=C(C=C5)C6=CC=CC=C6)N[C@@H](CC7=CC=CC=C7)CO [QS11] + CC(=O)c1c(C)c2cnc(Nc3ccc(N4CCNCC4)cn3)nc2n(C2CCCC2)c1=O [Palbociclib] (partner 0.5 µM)
The essentials:
as §1

Take HOP-62: the relative viability came to 1.12 with AZ628 + Lapatinib (first compound 0.08 µM); 0.978 in the test with AZ628 + Lapatinib (first compound 0.253 µM); 1.01 with AZ628 + Lapatinib (first compound 0.8 µM); 0.957 with AZ628 + Lapatinib (first compound 2.53 µM); 0.631 with AZ628 + Lapatinib (first compound 8 µM); 1.05 in the test with AZ628 + Foretinib (first compound 0.08 µM). Moreover, the relative viability in the test with AZ628 + Foretinib (first compound 0.253 µM) is 1.07; in the test with AZ628 + Foretinib (first compound 0.8 µM), 1.02; with AZ628 + Foretinib (first compound 2.53 µM), 0.999; with AZ628 + Foretinib (first compound 8 µM), 0.629; in the test with AZ628 + Bortezomib (first compound 0.08 µM), 0.814; with AZ628 + Bortezomib (first compound 0.253 µM), 0.832. Besides, the relative viability in the test with AZ628 + Bortezomib (first compound 0.8 µM) is 1.12; with AZ628 + Bortezomib (first compound 2.53 µM), 0.975; with AZ628 + Bortezomib (first compound 8 µM), 0.805; with QS11 + Palbociclib (first compound 0.08 µM) it was 0.471; with QS11 + Palbociclib (first compound 0.253 µM) it was 0.517; with QS11 + Palbociclib (first compound 0.8 µM), 0.455. Moreover, the relative viability in the test with QS11 + Palbociclib (first compound 2.53 µM) was 0.369; with QS11 + Palbociclib (first compound 8 µM), 0.281.
For NCI-H1651, the relative viability with AZ628 + Lapatinib (first compound 0.08 µM) worked out at 0.985; in the test with AZ628 + Lapatinib (first compound 0.253 µM), 0.86; with AZ628 + Lapatinib (first compound 0.8 µM) it was 0.865; in the test with AZ628 + Lapatinib (first compound 2.53 µM) it was 0.753; in the test with AZ628 + Lapatinib (first compound 8 µM), 1.11; with AZ628 + Foretinib (first compound 0.08 µM), 0.887. In addition, the relative viability was determined as 0.867 with AZ628 + Foretinib (first compound 0.253 µM); 0.885 in the test with AZ628 + Foretinib (first compound 0.8 µM); 0.774 with AZ628 + Foretinib (first compound 2.53 µM); 0.856 with AZ628 + Foretinib (first compound 8 µM); 1.03 with AZ628 + Bortezomib (first compound 0.08 µM); 0.903 in the test with AZ628 + Bortezomib (first compound 0.253 µM). Moreover, the relative viability with AZ628 + Bortezomib (first compound 0.8 µM) was 0.897; with AZ628 + Bortezomib (first compound 2.53 µM), 0.953; with AZ628 + Bortezomib (first compound 8 µM), 0.887; with QS11 + Palbociclib (first compound 0.08 µM) it was 0.542; with QS11 + Palbociclib (first compound 0.253 µM) it was 0.53; in the test with QS11 + Palbociclib (first compound 0.8 µM) it was 0.4. The relative viability worked out at 0.48 with QS11 + Palbociclib (first compound 2.53 µM) and 0.581 in the test with QS11 + Palbociclib (first compound 8 µM).
For NCI-H2085, the relative viability in the test with AZ628 + Lapatinib (first compound 0.08 µM) is 0.824; in the test with AZ628 + Lapatinib (first compound 0.253 µM), 0.685; with AZ628 + Lapatinib (first compound 0.8 µM), 0.795; with AZ628 + Lapatinib (first compound 2.53 µM), 0.741; in the test with AZ628 + Lapatinib (first compound 8 µM) it was 0.743; in the test with AZ628 + Foretinib (first compound 0.08 µM), 0.994. In addition, the relative viability was 1.17 in the test with AZ628 + Foretinib (first compound 0.253 µM); 1.07 with AZ628 + Foretinib (first compound 0.8 µM); 1.09 with AZ628 + Foretinib (first compound 2.53 µM); 0.676 in the test with AZ628 + Foretinib (first compound 8 µM); 1.2 in the test with AZ628 + Bortezomib (first compound 0.08 µM); 1.02 in the test with AZ628 + Bortezomib (first compound 0.253 µM). Also, the relative viability with AZ628 + Bortezomib (first compound 0.8 µM) came out at 1.19; with AZ628 + Bortezomib (first compound 2.53 µM), 1.07; with AZ628 + Bortezomib (first compound 8 µM) it was 1.06; with QS11 + Palbociclib (first compound 0.08 µM), 0.474; with QS11 + Palbociclib (first compound 0.253 µM), 0.509; with QS11 + Palbociclib (first compound 0.8 µM), 0.402. The results for the relative viability with QS11 + Palbociclib (first compound 2.53 µM) and in the test with QS11 + Palbociclib (first compound 8 µM) were 0.433 and 0.475, respectively.
With NCI-H2023, the relative viability was determined as 0.914 with AZ628 + Lapatinib (first compound 0.08 µM); 0.859 with AZ628 + Lapatinib (first compound 0.253 µM); 0.914 with AZ628 + Lapatinib (first compound 0.8 µM); 0.763 in the test with AZ628 + Lapatinib (first compound 2.53 µM); 0.689 in the test with AZ628 + Lapatinib (first compound 8 µM); 0.886 with AZ628 + Foretinib (first compound 0.08 µM). The relative viability in the test with AZ628 + Foretinib (first compound 0.253 µM) came out at 0.824; with AZ628 + Foretinib (first compound 0.8 µM), 0.826; with AZ628 + Foretinib (first compound 2.53 µM), 0.724; with AZ628 + Foretinib (first compound 8 µM) it was 0.607; in the test with AZ628 + Bortezomib (first compound 0.08 µM), 1.19; with AZ628 + Bortezomib (first compound 0.253 µM) it was 1.07. For the same cell line, the relative viability came to 1.06 with AZ628 + Bortezomib (first compound 0.8 µM); 0.981 with AZ628 + Bortezomib (first compound 2.53 µM); 0.821 with AZ628 + Bortezomib (first compound 8 µM); 0.42 in the test with QS11 + Palbociclib (first compound 0.08 µM); 0.397 in the test with QS11 + Palbociclib (first compound 0.253 µM); 0.302 with QS11 + Palbociclib (first compound 0.8 µM). The relative viability with QS11 + Palbociclib (first compound 2.53 µM) was determined as 0.36; in the test with QS11 + Palbociclib (first compound 8 µM), 0.29.
Regarding UMC-11, the relative viability came to 1.05 in the test with AZ628 + Lapatinib (first compound 0.08 µM); 0.903 with AZ628 + Lapatinib (first compound 0.253 µM); 0.95 in the test with AZ628 + Lapatinib (first compound 0.8 µM); 0.9 with AZ628 + Lapatinib (first compound 2.53 µM); 0.968 with AZ628 + Lapatinib (first compound 8 µM); 1.13 with AZ628 + Foretinib (first compound 0.08 µM). Also, the relative viability was 0.916 with AZ628 + Foretinib (first compound 0.253 µM); 0.951 with AZ628 + Foretinib (first compound 0.8 µM); 1 with AZ628 + Foretinib (first compound 2.53 µM); 1.19 with AZ628 + Foretinib (first compound 8 µM); 0.935 in the test with AZ628 + Bortezomib (first compound 0.08 µM); 0.571 with AZ628 + Bortezomib (first compound 0.253 µM). Further, the relative viability in the test with AZ628 + Bortezomib (first compound 0.8 µM) stood at 0.694; in the test with AZ628 + Bortezomib (first compound 2.53 µM), 0.739; in the test with AZ628 + Bortezomib (first compound 8 µM), 0.666; in the test with QS11 + Palbociclib (first compound 0.08 µM), 0.307; in the test with QS11 + Palbociclib (first compound 0.253 µM), 0.343; with QS11 + Palbociclib (first compound 0.8 µM), 0.378. Moreover, the relative viability in the test with QS11 + Palbociclib (first compound 2.53 µM) is 0.343; in the test with QS11 + Palbociclib (first compound 8 µM), 0.337.
Regarding NCI-H23, the relative viability with AZ628 + Lapatinib (first compound 0.08 µM) was found to be 1.18; with AZ628 + Lapatinib (first compound 0.253 µM), 0.958; with AZ628 + Lapatinib (first compound 0.8 µM) it was 0.698; with AZ628 + Lapatinib (first compound 2.53 µM), 0.722; with AZ628 + Lapatinib (first compound 8 µM), 0.528; with AZ628 + Foretinib (first compound 0.08 µM), 0.989. Also, the relative viability with AZ628 + Foretinib (first compound 0.253 µM) was 0.967; in the test with AZ628 + Foretinib (first compound 0.8 µM) it was 0.768; with AZ628 + Foretinib (first compound 2.53 µM) it was 0.773; in the test with AZ628 + Foretinib (first compound 8 µM), 0.588; with AZ628 + Bortezomib (first compound 0.08 µM) it was 1.12; with AZ628 + Bortezomib (first compound 0.253 µM) it was 1.01. In addition, the relative viability in the test with AZ628 + Bortezomib (first compound 0.8 µM) was found to be 0.805; with AZ628 + Bortezomib (first compound 2.53 µM), 0.887; in the test with AZ628 + Bortezomib (first compound 8 µM), 0.551; with QS11 + Palbociclib (first compound 0.08 µM), 0.492; in the test with QS11 + Palbociclib (first compound 0.253 µM) it was 0.387; with QS11 + Palbociclib (first compound 0.8 µM), 0.354. In addition, the results for the relative viability with QS11 + Palbociclib (first compound 2.53 µM) and with QS11 + Palbociclib (first compound 8 µM) were 0.347 and 0.329, respectively.

Source of the values: the supplement of paper PMC10307832.
